# What was measured:
# BALB/cAJc mice = conditions: mouse, in vivo, iv
# Balb/c mice = conditions: mouse, in vivo, ip
Substance,IgG (anti-MAP antibody in sera) (BALB/cAJc mice),IgM (anti-MAP antibody in sera) (BALB/cAJc mice),IgG (anti-MAP antibody in sera) (Balb/c mice),IgM antibody titer against Ebola 1 (Balb/c mice)
Core-[PEG-FPRCRYVHK]4 [Ebola 2 MAP4],no increase,no increase,–,–
Core-[PEG-IKKADGSECLP]4 [Ebola 1 MAP4],increase in IgG was seen only in the 100-μg administration group,–,no increase,"one mouse showed an evident increase, and two mice showed mild increases"

# — patent US20190276495A1 (priority 2016, published 2019)
